The assay deals with PDE IV. Put plainly: Inhibition of PDE IV activity. The assay is classed as biochemical. To be noted: method of Bauer and Schwabe adapted to microtiter plates. The method, then:
The activity test was carried out according to the method of Bauer and Schwabe, which was adapted to microtiter plates (Naunyn-Schmiedeberg's Arch. Pharmacol. 311, 193-198, 1980). In this test, the PDE reaction takes place in the first step. In a second step, the charged 5'-nucleotide is cleaved to give the uncharge nucleoside by a 5'-nucleotidase of the snake veno of Ophiophagus hannah (king cobra). In the third step, the nucleoside is separated from the remaining charged substrate on ion exchange columns. The columns are eluted directly into minivials using 2 ml of 30 mM ammonium formate (pH 6.0) to which a further 2 ml of scintillator fluid is added for counting.
The inhibitory values determined for the compounds according to the invention result from Table 1 which follows, in which the numbers of the compounds correspond to the numbers of the examples.

Molecules are shown by their SMILES. Structures can show the parent of a compound that is named as a salt.

Regarding `COc1ccc(-c2csc(-c3cccc(C(=O)O)c3)n2)c2c1OC1(CCCC1)C2` [Compound 5, 3-[4-(2,3-Dihydro-7-methoxybenzofuran-2-spiro-1'-cyclopentan-4-yl)thiazol-2-yl]benzoic acid], the “-log IC50” value worked out at 7.79. The same measure for `COc1ccc(-c2csc(-c3ccnc(C(=O)O)c3)n2)c2c1OC1(CCCC1)C2` [Compound 4, 4-[4-(2,3-Dihydro-7-methoxybenzofuran-2-spiro-1'-cyclopentan-4-yl)thiazol-2-yl]pyridine-2-carboxylic acid semihydrochloride]: 6.85; for `CCOC(=O)c1cc(-c2nc(-c3ccc(OC)c4c3CC3(CCCC3)O4)cs2)ccn1` [Compound 3, Ethyl 4-[4-(2,3-Dihydro-7-methoxybenzofuran-2-spiro-1'-cyclopentan-4-yl)thiazol-2-yl]pyridine-2-carboxylate]: 7.22; for `COc1ccc(-c2csc(-c3ccncc3)n2)c2c1OC1(CCCC1)C2` [Compound 2, 4-[4-(2,3-Dihydro-7-methoxybenzofuran-2-spiro-1'-cyclopentan-4-yl)thiazol-2-yl]pyridine]: 7.25. With `COc1ccc(-c2csc(-c3cccnc3)n2)c2c1OC1(CCCC1)C2` [Compound 1, 3-[4-(2,3-Dihydro-7-methoxybenzofuran-2-spiro-1'-cyclopentan-4-yl)thiazol-2-yl]pyridine] the figure was 7.74.

Source of the values: patent publication US6043263A, “(2,3-dihydrobenzofuranyl)-thiazoles as phosphodiesterase inhibitors” (Byk Gulden Lomberg Chemische Fabrik GmbH, priority 1996, dated 2000).
